Here are results for one molecule from patent publication US20100113291A1 (CENTRE NATIONAL DE LA RECHERCHE SCIENTIFIQUE, priority 2006, published 2010).

This test deals with T1, MabA-C60V/S144L (Mycobacterium tuberculosis, UniProt P9WGT3, C60V/S144L).
T1 construct: made in house; host or cells: Escherichia coli
It is filed as binding. Particulars: read-out: KD for the cofactor.

Take `NC(=O)C1=CN([C@@H]2O[C@H](COP(=O)(O)OP(=O)(O)OC[C@H]3O[C@@H](n4cnc5c(N)ncnc54)[C@H](OP(=O)(O)O)[C@@H]3O)[C@@H](O)[C@H]2O)C=CC1` [NADPH]: the Kd came to 11.2 µM.

By Kd is commonly meant the concentration at which binding is half-saturated.
